The values that follow come from publication PMC8479016, “High-throughput screening and evaluation of repurposed drugs targeting the SARS-CoV-2 main protease” (Signal Transduction and Targeted Therapy, 2021).

A word on the Kd: it is the concentration at which binding is half-saturated. A word on the IC50: it is the point on the concentration scale where inhibition reaches its midpoint. The term EC50 denotes the concentration at which the effect is half-maximal.

The target in experiment [1] is T1, SARS-CoV-2 M^pro (Severe acute respiratory syndrome coronavirus 2, UniProt P0DTD1). Description: biochemical. The experiment is classed as binding.
Experiment [2] deals with T1, SARS-CoV-2 M^pro. Description: biochemical. The format is biochemical. The following applies: for inhibitory efficacy on the enzymatic activity of M^pro (inhibition rate): 20 μM drug, 1.5 µM M^pro, 10 μM substrate, 3~6 h.
Experiment [3] has as its system SARS-CoV-2. Description: Antiviral activity assay in infected Vero E6 cells, viral RNA copies by qRT-PCR. The following applies: Vero E6, MOI 0.01, 48 h after infection. The experiment is classed as cell-based.
For experiment [4], the system named is SARS-CoV-2. Also noted: method as in earlier work. The following applies: cellular experiment; cited from earlier work.
[5] abbreviates: SPR, steady-state affinity model, 25℃, read-out: KD (equilibrium dissociation constant).

“And” between values parts separate entries of the source, which are not always exact repeats. Equal values may be shown once. “Also recorded” adds a separate entry of the source. Read-outs that look alike come from different tables or passages of the source.

In the case of `Cc1onc(-c2ccccc2Cl)c1C(=O)N[C@@H]1C(=O)N2[C@@H]1SC(C)(C)[C@@H]2C(=O)O` [Cloxacillin], the dissociation constant (Kd) on SARS-CoV-2 M^pro [1] (setting [5]) is ≤ 55 µM and 54.6 µM. On SARS-CoV-2 M^pro [2], the “inhibitory efficacy on the enzymatic activity of M^pro (inhibition rate)” value (“inhibitory efficacy” for short) is given as “moderate inhibition”.
Turning to `C[C@@H]1CCO[C@H]2Cn3cc(C(=O)NCc4ccc(F)cc4F)c(=O)c(O)c3C(=O)N12` [Dolutegravir], the dissociation constant (Kd) at SARS-CoV-2 M^pro [1] (setting [5]) was ≤ 55 µM and 18.1 µM. The “inhibitory efficacy” value on SARS-CoV-2 M^pro [2] was “moderate inhibition”.
As for `CC(C)(O)CNc1nc(Nc2ccnc(C(F)(F)F)c2)nc(-c2cccc(C(F)(F)F)n2)n1` [Enasidenib], the Kd at SARS-CoV-2 M^pro [1] (setting [5]) is ≤ 55 µM and 9.31 µM.
As to `CN1CCN(c2ccc(C(=O)Nc3n[nH]c4ccc(Cc5cc(F)cc(F)c5)cc34)c(NC3CCOCC3)c2)CC1` [Entrectinib], the Kd at SARS-CoV-2 M^pro [1] (setting [5]) is ≤ 55 µM and 0.68 µM. In addition, the IC50 at SARS-CoV-2 M^pro [2] (200 nM M^pro, 5-fold gradient 0.032-20 µM, 3 h, read-out: IC50) turned out to be 10.6 µM. At SARS-CoV-2 M^pro [2], the “inhibitory efficacy” value is “outstanding inhibitory efficacy”. The same compound came in with a half-maximal effective concentration (EC50) in the experiment with SARS-CoV-2 [3] (Severe acute respiratory syndrome coronavirus 2, Vero C1008) of 0.198 µM.
Compound `CC(C)C[C@H](NC(=O)OCc1ccccc1)C(=O)N[C@@H](CC1CCNC1=O)C(O)S(=O)(=O)O` (stereo partly drawn) [GC376] gave an EC50 in the experiment on SARS-CoV-2 [3] of 0.074 µM.
For the compound `CC(C)(C)NC(=O)[C@@H]1C[C@@H]2CCCC[C@@H]2CN1C[C@@H](O)[C@H](Cc1ccccc1)NC(=O)[C@H](CC(N)=O)NC(=O)c1ccc2ccccc2n1` [Saquinavir], the Kd at SARS-CoV-2 M^pro [1] was 2.96 ± 2 µM; at SARS-CoV-2 M^pro [1] (read-out: KD (equilibrium dissociation constant)), at most 55 µM.
For the compound `CC(C)CN(C[C@@H](O)[C@H](Cc1ccccc1)NC(=O)O[C@H]1CO[C@H]2OCC[C@H]21)S(=O)(=O)c1ccc(N)cc1` [darunavir], at SARS-CoV-2 M^pro [2], the “inhibitory efficacy” value is on record as “either no or only weak inhibitory effects”.
On the same count and under the same terms, next, `Cc1cccc(C)c1OCC(=O)N[C@@H](Cc1ccccc1)[C@@H](O)C[C@H](Cc1ccccc1)NC(=O)[C@H](C(C)C)N1CCCNC1=O` [lopinavir]: “either no or only weak inhibitory effects”.
Consider `Cc1c(O)cccc1C(=O)N[C@@H](CSc1ccccc1)[C@H](O)CN1C[C@H]2CCCC[C@H]2C[C@H]1C(=O)NC(C)(C)C` [nelfinavir], for which binding on SARS-CoV-2 M^pro [1] was put at a Kd of 2.36 µM. Also, the EC50 with SARS-CoV-2 [4] was 1.13 µM. On SARS-CoV-2 M^pro [2], the IC50 stood at 41.5 µM and the “inhibitory efficacy” value was “either no or only weak inhibitory effects; also recorded: failed to block the enzymatic activity”.
